# Experimental data taken from US6656920B2, “Composition and method for promoting oral health” (Amarillo Biosciences, Inc., priority 2000, dated 2003).
# Columns and labels:
# [1] = tested on: subjects with Sjögren's syndrome; settings: no sustained benefit in controlled clinical trials; cited from earlier work
# [2] = tested on: subjects with primary Sjögren's syndrome; assay: Phase 3 trial, 24 weeks, IFN lozenges versus 200 mg CAM placebo lozenges; format: in vivo, human
# Description: (§1) The purposes of our investigations were to examine the safety and efficacy of four different dosages of IFN lozenges compared to placebo in subjects with primary Sjögren's syndrome over a 12-week period in a Phase 2 trial, and to examine the best dose from our Phase 2 trial in a 24-week Phase 3 trial. The primary endpoints of our Phase 2 and Phase 3 trials were measurements of unstimulated saliva and stimulated saliva and subjective assessments of dry mouth. The IFN-α was delivered to the patients in 200 mg lozenges consisting of crystalline anhydrous maltose (CAM). The placebo was 200 mg CAM without IFN in both (Phase 2 and Phase 3) clinical trials. […] The IFN-treated group did even better (73% and 81%, respectively), but the beneficial effect of CAM on UWS was striking. […] Not only will this benefit patients with Sjögren's syndrome, but CAM should benefit people with dry mouth from other causes.
# [3] = tested on: subjects with primary Sjögren's syndrome; assay: Phase 2 trial, 12 weeks, four dosages of IFN lozenges versus CAM placebo; format: in vivo, human; settings: Phase 2, placebo (200 mg CAM) treated patients
# Description: as §1
# [4] = tested on: subjects with Sjögren's syndrome; settings: at 24 weeks, 30 subjects per group, p<0.001; cited from earlier work
compound,measurement,setting,value
CC[C@@H]1C(=O)OC[C@@H]1Cc1cncn1C [pilocarpine],salivary output,[1],increase salivary output transiently
"OC[C@H]1O[C@H](O[C@H]2[C@H](O)[C@@H](O)[C@H](O)O[C@@H]2CO)[C@H](O)[C@@H](O)[C@@H]1O [CAM, crystalline anhydrous maltose]",overall result of lozenge administration,[2]; 200 mg maltose lozenges three times daily,Good results
same,patients with an increase in unstimulated whole saliva (UWS),"[2]; Phase 3, after 6 months of daily treatment, 200 mg lozenges",63.3%
same,patients with an increase in UWS by 12 weeks,[3],9 of 18
sucralfate,subjects with ≧100% increase from baseline in stimulated whole salivary flow,[4],3%
CC1OC2(CS1)CN1CCC2CC1 (stereo not shown) [cevimeline],salivary output,[1],increase salivary output transiently
CN(Cc1cc(Br)cc(Br)c1N)C1CCCCC1 [bromhexine],salivary output,[1],increase salivary output transiently
